Results from patent US20230398161A1 (priority 2020, published 2023).

Legend:
[1] = system: Escherichia coli (E. coli) strain ATCC 700928; assay: Urinary tract infection model in C3H/OuJ mice, CK570: E. coli burden (CFU) in tissues; conditions: positive control, IV, all timepoints assessed
Description: The vehicle used in this study was 1×TBS.
C3H/OuJ female mice, aged approximately 8 weeks and weighing 21 to 24 grams, were used in this study. Mice were housed with 1 to 5 animals per cage and were provided food (5P76 Prolab isopro irradiated lab diet) and water ad libitum.
Mice were anesthetized with 1-4% isoflurane in oxygen for 2-3 minutes until a deep plane of anesthesia was achieved, confirmed by toe pinch reflex. Each mouse was then placed on a board, ventral side up, with the nose inserted into a nose cone supplying isoflurane. The lower abdomen was gently massaged to expel any urine in the bladder. […] For IV administration, mice were manually restrained in a restrainer device, and study treatment was administered via the lateral tail vein. A dose volume of 100 μL was used for IV injections. For IU administration, the same method was used as for the original administration of E. coli. A dose volume of 50 μL was used for IU administration.
All CFU data were log-transformed.

[2] = system: 88 contemporaneous urinary tract infection (UTI) isolates; type: cell-based, E. coli; conditions: both isolate panels, Tables 18, 19
Description: (§1) The first assay used a panel of 88 contemporaneous urinary tract infection (UTI) isolates from North America, Europe, Latin America, and Asia. […] The second assay used a panel made up of a 300-strain clinical isolate panel (Table 14) with an additional 4 strains of interest. […] Four of the same SOC antibiotics tested against the 88-isolate panel were tested against this panel. The non-SOC antibiotics were not included due to their limited use in clinical settings, and nitrofurantoin was not included due to the low probability of resistance to this drug.
(§2) For both isolate panels, antibiotic concentrations tested were determined by using Clinical and Laboratory Standards Institute (CLSI) or European Committee on Antimicrobial Susceptibility Testing (EUCAST) breakpoints at concentrations that kill susceptible isolates but allow intermediate or resistant isolates to grow in the standard AST microdilution assay (Table 17).
(§3) The cocktail was then mixed with bacteria to obtain final titers of 1×10^6 plaque-forming unit (PFU)/mL/phage for the cocktail and 1×10^5 colony-forming unit (CFU)/mL for the bacteria, resulting in a multiplicity of infection (MOI) of 10 for each phage in a sample. […] Reactions were incubated at 37° C. with shaking and OD measurements were taken each hour for 20 hours.

[3] = system: 300-strain clinical isolate panel with an additional 4 strains; assay: Host range of CK618 and antibiotics alone and in combination, 304-isolate panel; type: cell-based, E. coli; conditions: antibiotic at concentration printed after name plus CK618
Description: as §1, §2, §3

Molecule	bacterial burden in each tissue [1]	host range on MDR and beta-lactam-resistant strains compared with all strains (in words) [2]	host range performance on all strains (in words) [2]	Host range % on all strains (n = 304), Combination: Antibiotic + LBP-CK618 [3]
O=C(O)c1cn(C2CC2)c2cc(N3CCNCC3)c(F)cc2c1=O [Ciprofloxacin]	significantly reduced bacterial burden to the LOD	–	–	–
C[C@@H]1O[C@@H]1P(=O)(O)O [Fosfomycin]	–	performed similarly regardless of antibiotic resistance status	strong activity across all strains	97.0%
Trimethoprim/Sulfamethoxazole [TMP/SXT]	–	–	–	81.9%
